Measurements: patent publication US20130102631A1, “NOVEL MICROBIOCIDAL DIOXIME ETHER DERIVATIVES” (SYNGENTA CROP PROTECTION LLC, priority 2010, published 2013)

Key:
[1] = test system: Puccinia recondita f. sp. tritici; experiment: Puccinia recondita f. sp. tritici / wheat / leaf disc preventative (brown rust); format: in vivo; settings: foliar, wheat leaf segments cv Kanzler, inoculated 1 day after application, assessed 7-9 days after application
[2] = test system: Phaeosphaeria nodorum (Septoria nodorum); experiment: Phaeosphaeria nodorum (Septoria nodorum) / wheat / leaf disc preventative (glume blotch); format: in vivo; settings: Parastagonospora nodorum, foliar, wheat leaf segments cv Kanzler, inoculated 2 days after application, assessed 5-7 days after application
Procedure, shortened: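 Wheat cv Kanzler leaf segments on agar were sprayed with formulated compound at 200 ppm and inoculated with spores 2 days later. Incubation at 20 °C, 75% RH, 12/12 h light/dark; percent disease control versus untreated scored 5–7 days after application.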

[3] = test system: Glomerella lagenarium; experiment: Glomerella lagenarium (Colletotrichum lagenarium) / liquid culture (anthracnose); format: cell-based; settings: Colletotrichum orbiculare; at ≦200 ppm, liquid culture PDB, inhibition of growth photometrically 3-4 days after application; read-out: control of Glomerella lagenarium
Procedure, shortened: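 Glomerella lagenarium conidia in potato dextrose broth added to test compound supplied in DMSO in microtiter wells. Plates incubated at 24° C.; growth inhibition measured photometrically 3-4 days after application.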

[4] = test system: Mycosphaerella arachidis (Cercospora arachidicola); experiment: Mycosphaerella arachidis (Cercospora arachidicola) / liquid culture (early leaf spot); format: cell-based; settings: at ≦200 ppm, liquid culture PDB, inhibition of growth photometrically 4-5 days after application, read-out: control of Mycosphaerella arachidis
Procedure, shortened: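 Cryostored Cercospora arachidicola conidia were mixed into potato dextrose broth and added to test compound in DMSO. Incubation was at 24° C. Growth inhibition was read photometrically 4-5 days after application.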

[5] = test system: Mycosphaerella graminicola (Septoria tritici); experiment: Mycosphaerella graminicola (Septoria tritici) / liquid culture (Septoria blotch); format: cell-based; settings: Zymoseptoria tritici; at ≦200 ppm, liquid culture PDB, inhibition of growth photometrically 4-5 days after application; read-out: control of Mycosphaerella graminicola
[6] = test system: Gaeumannomyces graminis; experiment: Gaeumannomyces graminis / liquid culture (take-all of cereals); format: cell-based; settings: at ≦200 ppm, liquid culture PDB, inhibition of growth photometrically 4-5 days after application, read-out: control of Gaeumannomyces graminis
Procedure, shortened: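 Mycelial fragments of the fungus in potato dextrose broth were added to wells containing compound in DMSO. Plates were incubated at 24° C, and growth inhibition was read photometrically 4-5 days after application.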

[7] = test system: Thanatephorus cucumeris (Rhizoctonia solani); experiment: Thanatephorus cucumeris (Rhizoctonia solani) / liquid culture (foot rot, damping-off); format: cell-based; settings: at ≦200 ppm, liquid culture PDB, inhibition of growth photometrically 3-4 days after application, read-out: control of Thanatephorus cucumeris

C/C(=N\OCC(C)(C)CO/N=C1\CCCc2ccc(C)nc21)c1cc(C)cc(C)n1 [E/E-2.168]
≥ 80%: pest or weed control at 200 ppm [1] | pest or weed control at 200 ppm [2] | inhibition of growth at up to 200 µg/mL [3] | inhibition of growth at up to 200 µg/mL [4] | inhibition of growth at up to 200 µg/mL [5] | inhibition of growth at up to 200 µg/mL [6] | inhibition of growth at up to 200 µg/mL [7]

Cc1cccc(/C(=N/OCC(C)(C)CO/N=C2\CCCc3ccc(C)nc32)c2ccccc2)n1 [E/E-2.474]
≥ 80%: pest or weed control at 200 ppm [1] | pest or weed control at 200 ppm [2] | inhibition of growth at up to 200 µg/mL [3] | inhibition of growth at up to 200 µg/mL [4] | inhibition of growth at up to 200 µg/mL [5] | inhibition of growth at up to 200 µg/mL [6] | inhibition of growth at up to 200 µg/mL [7]

Cc1ccc2c(n1)/C(=N/OCC(C)(C)CO/N=C/c1ccc3ccccc3n1)CCC2 [E/E-2.507]
≥ 80%: pest or weed control at 200 ppm [1] | pest or weed control at 200 ppm [2] | inhibition of growth at up to 200 µg/mL [3] | inhibition of growth at up to 200 µg/mL [4] | inhibition of growth at up to 200 µg/mL [5] | inhibition of growth at up to 200 µg/mL [6] | inhibition of growth at up to 200 µg/mL [7]

C/C(=N\OCC(C)(C)CO/N=C1\CCCc2ccc(C)nc21)c1cccc(Br)n1 [E/E-2.508]
≥ 80%: pest or weed control at 200 ppm [1] | pest or weed control at 200 ppm [2] | inhibition of growth at up to 200 µg/mL [3] | inhibition of growth at up to 200 µg/mL [4] | inhibition of growth at up to 200 µg/mL [5] | inhibition of growth at up to 200 µg/mL [6] | inhibition of growth at up to 200 µg/mL [7]
